Consider 2 compounds from patent publication US20200270588A1, “GLUCOSYL TRANSFERASE POLYPEPTIDES AND METHODS OF USE” (Syngenta Participations AG, priority 2017, published 2020).

Common to all, as to format: biochemical
Assay [1] deals with T1, SEQ ID NO 20, mutant of Zea mays bx9 glucosyl transferase (Zea mays, UniProt B4G072, A281K/A334K/F21Y/L194V/M279F/S117V).
T1 construct: His tag (C); made in house
The settings on record: lower block, concentration printed only in upper block: V 0.300, VII 0.210; IV, VIII, XI, XXI, XX, XVIII, XVI, XV, XIV 0.200; others 1.000 mM. As to the method:
(§1) Glucosyl transferase activity is assayed via measurement of acceptor substrate-dependent production of UDP from ultrapure UDP-glucose using the Promega UDP-Glo™ method and according to the manufacturer's instructions. Assays are run in 96 well microtiter plates.
(§2) Enzyme, typically at a stock concentration of ˜2 mg/ml is diluted to an appropriate concentration in 50 mM K^+ Hepes buffer at pH7.5 containing 0.5 mg/mL bovine serum albumin (BSA) and 5 ul aliquots of this diluted enzyme added to each well of a Perkin Elmer white ½ area 96 well plate. […] Assays are run for an appropriate time (usually 10 to 60 min) so that the amount of UDP formed lies within the most nearly linear part of the UDP standard curve and are stopped with the addition and mixing of 25 ul UDP-Glo™ detection reagent (prepared as described below). Plates are then incubated at room temperature for 60 minutes and then read in a luminescence plate reader (Perkin Elmer Envision 2130 Multilabel Reader). A UDP standard curve is run alongside each set of assays and reagent blank control assays run with DMSO in place of test herbicide.
(§3) The UDP-Glo™ reagents are made up and used according to the manufacturer's instructions. Thus, Nucleotide Detection Buffer and ATP are combined to make nucleotide detection reagent (NDR) dispensed into aliquots and frozen to be freshly thawed before use.
(§4) Km and kcat values in respect of UDP-glucose are derived by carrying out experiments to measure initial rates over a suitable range of concentrations of UDP glucose out at a fixed near saturating concentration of acceptor substrate. Best fit values of kcat, Km and kcat/Km are obtained by direct fitting of the data to the Michaelis-Menten equation using Graphpad Prism™ software.
All of these proteins were C-terminally his-tagged, expressed and purified as described in Example 1. Assays were run and analyzed as described in example 1.

The target in assay [2] is T2, Zea mays bx9 glucosyl transferase (C-terminally his tagged SEQ ID NO: 1) (Zea mays, UniProt B4G072).
T2 construct: His tag (C); made in house; host or cells: E. coli BL21 (DE3), pET24a
T2 sequence (B4G072 1-462): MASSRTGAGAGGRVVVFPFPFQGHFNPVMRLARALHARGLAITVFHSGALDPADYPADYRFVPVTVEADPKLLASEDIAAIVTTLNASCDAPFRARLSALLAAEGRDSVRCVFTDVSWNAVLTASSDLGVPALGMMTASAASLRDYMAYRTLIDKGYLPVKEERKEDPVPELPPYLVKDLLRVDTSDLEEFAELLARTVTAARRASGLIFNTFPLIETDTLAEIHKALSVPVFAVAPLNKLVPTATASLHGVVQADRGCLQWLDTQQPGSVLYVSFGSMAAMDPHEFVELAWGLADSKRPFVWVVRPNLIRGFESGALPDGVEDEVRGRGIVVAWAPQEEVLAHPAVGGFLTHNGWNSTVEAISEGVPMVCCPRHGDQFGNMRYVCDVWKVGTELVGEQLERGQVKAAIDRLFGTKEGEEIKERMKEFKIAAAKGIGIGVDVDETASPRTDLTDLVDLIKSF
As to the kind of experiment: UDP-Glo glucosyl transferase assay, purified enzyme. The settings on record: for Activity: herbicide mM: V 0.300, VI 0.250, VII 0.210, IV, VIII, XI, XXI, XX, XVIII, XVI, XV, XIV 0.200, others 1.000.

In assay [3] the target is T3, SEQ ID NO 17, zmBX9 S117V, M279F, A334K mutant (Zea mays, UniProt B4G072, A334K/M279F/S117V).
T3 construct: polypeptides were the C-terminally his-tagged; His tag (C); made in house
The description is as above. The settings on record: herbicide mM: V 0.300, VI 0.250, VII 0.210; IV, VIII, XI, XXI, XX, XVIII, XVI, XV, XIV 0.200; others 1.000. As to the method: as §1
as §2, with “herbicide. Typically, 300 pmol of UDP corresponds to a Relative Luminescence Unit (RLU) reading of about 1.5E7 and the response curve between 0 and 600 pmol is fitted to a polynomial function (see for example FIG. 2).” for “herbicide.”
as §3, §4
(§5) Variants of C-terminally his tagged SEQ ID No:1 (w/t bx9 from Zea mays), exemplified as SEQ ID 16-30, were cloned, purified and assayed as described in Example 1. FIG. 4 depicts the data from some experiments to determine the kinetic parameters of some of these variants in respect of herbicide VI and table 12 summarizes the estimates of kinetic parameters obtained from further such experiments in respect of a range of herbicides.
(§6) Table 13 summarizes the results obtained from assays, run as described in Example 1, using a variety of alcohol and aminal PSII herbicides as substrates of the Zea mays bx9 w/t (i.e. C-terminally his tagged SEQ ID no 1) and various mutants of the same, selected from SEQ ID NO: 16-30). All of these proteins were C-terminally his-tagged, expressed and purified as described in Example 1. Assays were run and analyzed as described in example 1. It is seen that various of the mutations herein and combinations thereof led to significant improvements (over the w/t bx9 protein) in catalytic activity versus various of the herbicides and that these improvements are often of sufficient magnitude to be useful for conferring improved herbicide tolerance upon crop. This is especially the case given that even the unmutated w/t bx9 enzyme which has only modest glucosyl transferase activity (for example against compounds V and VI) was nevertheless adequately active to confer significant herbicide tolerance in the glass house (as shown in example 9) even without mutational improvement. It is also seen that particular mutations can lead to very much improved activity in respect of some chemistries but not to others but that, overall, there is at least one variant within the scope of the current invention that provides significant and useful improvement in tolerance to each of the chemistries tested.

The target in assay [4] is T4, SEQ ID NO 22, mutant of Zea mays bx9 glucosyl transferase (Zea mays, UniProt B4G072, A334K/F21Y/M279F/S117V/T220P).
T4 construct: His tag (C); made in house
The description is as above. The settings on record: lower block, concentration printed only in upper block: V 0.300, VII 0.210; IV, VIII, XI, XXI, XX, XVIII, XVI, XV, XIV 0.200; others 1.000 mM. The procedure:
as §1
as §2, with “herbicide. Typically, 300 pmol of UDP corresponds to a Relative Luminescence Unit (RLU) reading of about 1.5E7 and the response curve between 0 and 600 pmol is fitted to a polynomial function (see for example FIG. 2).” for “herbicide.”
as §3, §4, §5, §6

Assay [5] deals with T5, SEQ ID NO 21, mutant of Zea mays bx9 glucosyl transferase (Zea mays, UniProt B4G072, A334K/F21Y/L194V/M279F/S117V).
T5 construct: His tag (C); made in house
Described as above. The settings on record: lower block, concentration printed only in upper block: V 0.300, VII 0.210; IV, VIII, XI, XXI, XX, XVIII, XVI, XV, XIV 0.200; others 1.000 mM. The procedure:
as §1
as §2, with “herbicide. Typically, 300 pmol of UDP corresponds to a Relative Luminescence Unit (RLU) reading of about 1.5E7 and the response curve between 0 and 600 pmol is fitted to a polynomial function (see for example FIG. 2).” for “herbicide.”
as §3, §4, §5, §6

In assay [6] the target is T6, SEQ ID NO 18, mutant of Zea mays bx9 glucosyl transferase (Zea mays, UniProt B4G072, A281K/A334K/F21Y/M279F/S117V).
T6 construct: His tag (C); made in house
The assay is described as above. The settings on record: herbicide mM: V 0.300, VI 0.250, VII 0.210; IV, VIII, XI, XXI, XX, XVIII, XVI, XV, XIV 0.200; others 1.000. As to the method:
as §1
as §2, with “herbicide. Typically, 300 pmol of UDP corresponds to a Relative Luminescence Unit (RLU) reading of about 1.5E7 and the response curve between 0 and 600 pmol is fitted to a polynomial function (see for example FIG. 2).” for “herbicide.”
(§7) The UDP-Glo™ reagents are made up and used according to the manufacturer's instructions. Thus, Nucleotide Detection Buffer and ATP are combined to make nucleotide detection reagent (NDR) dispensed into aliquots and frozen to be freshly thawed before use. […]
as §6

Assay [7] deals with T7, SEQ ID NO 23, mutant of Zea mays bx9 glucosyl transferase (Zea mays, UniProt B4G072, A334K/F21Y/L194C/M279F/S117V).
T7 construct: His tag (C); made in house
The assay is described as above. The settings on record: lower block, concentration printed only in upper block: V 0.300, VII 0.210; IV, VIII, XI, XXI, XX, XVIII, XVI, XV, XIV 0.200; others 1.000 mM. As to the method: as §1
as §2, with “herbicide. Typically, 300 pmol of UDP corresponds to a Relative Luminescence Unit (RLU) reading of about 1.5E7 and the response curve between 0 and 600 pmol is fitted to a polynomial function (see for example FIG. 2).” for “herbicide.”
as §7, §6

The target of assay [8] is T8, SEQ ID NO 19, mutant of Zea mays bx9 glucosyl transferase (Zea mays, UniProt B4G072, A281K/A334K/L194V/M279F/S117V).
T8 construct: His tag (C); made in house
The assay is described as above. The settings on record: herbicide mM: V 0.300, VI 0.250, VII 0.210; IV, VIII, XI, XXI, XX, XVIII, XVI, XV, XIV 0.200; others 1.000. As to the method:
as §1
as §2, with “herbicide. Typically, 300 pmol of UDP corresponds to a Relative Luminescence Unit (RLU) reading of about 1.5E7 and the response curve between 0 and 600 pmol is fitted to a polynomial function (see for example FIG. 2).” for “herbicide.”
as §7, §6

The structures appear in SMILES notation.

As for `Cc1cnc(N2C(=O)N(C)C(C)C2O)cc1C(F)(F)F` (centres unmarked) [XX], the Activity in assay [1] is 0.698 pmol/sec/pmol enzyme; in assay [2], −0.001 pmol/sec/pmol enzyme; in assay [3] it was 0.244 pmol/sec/pmol enzyme; in assay [4], 0.563 pmol/sec/pmol enzyme; in assay [5] it was 0.338 pmol/sec/pmol enzyme; in assay [6], 0.751 pmol/sec/pmol enzyme. For the same compound, the Activity in assay [7] is listed as 0.249 pmol/sec/pmol enzyme; in assay [8] it was 0.662 pmol/sec/pmol enzyme.
Turning to `CN1CC(O)N(c2nnc(C(C)(C)C)s2)C1=O` (centres unmarked) [IX], the Activity in assay [1] amounted to 0.068 pmol/sec/pmol enzyme; in assay [2], 0.017 pmol/sec/pmol enzyme; in assay [3], 0.035 pmol/sec/pmol enzyme; in assay [4], 0.071 pmol/sec/pmol enzyme; in assay [5], 0.012 pmol/sec/pmol enzyme; in assay [6] it was 0.115 pmol/sec/pmol enzyme. The Activity in assay [7] was 0.013 pmol/sec/pmol enzyme; in assay [8], 0.070 pmol/sec/pmol enzyme. The kcat (in general, the maximal rate divided by the concentration of active sites) in assay [2] (0.5 mM UDP-glucose, 25 C, pH 7.5, DMSO reagent blank as control) came out at 0.036 s⁻¹.
